target: BRD4 (Homo sapiens, UniProt O60885); assay: Time Resolved Fluorescence Resonance Energy Transfer (TR-FRET) binding assay, BRD4; details: one of the FRET assays described; read-out: FRET BRD4 IC50

Row | Compound | IC50 [nM]
1 | [2H]C([2H])([2H])c1nnn(C)c1-c1cnc2c3c(OCC)cc(S(C)(=O)=O)cc3n(C(c3ccccc3)C3CCC(F)(F)CC3)c2c1 [Example 210, 5-{5-[(S)-(4,4-Difluorocyclohexyl)(phenyl)methyl]-9-ethoxy-7-methanesulfonyl-5H-pyrido[3,2-b]indol-3-yl}-4-(^2H3)methyl-1-methyl-1H-1,2,3-triazole] | < 5
2 | [2H]C([2H])([2H])c1nnn(C)c1-c1cnc2c3c(F)cc(S(C)(=O)=O)cc3n(C(c3ncccc3F)C3CCC(F)(F)CC3)c2c1 (centres unmarked) [Example 211, 2-[(4,4-Difluorocyclohexyl)({9-fluoro-7-methanesulfonyl-3-[4-(^2H3)methyl-1-methyl-1H-1,2,3-triazol-5-yl]-5H-pyrido[3,2-b]indol-5-yl})methyl]-3-fluoropyridine] | < 5
3 | [2H]C([2H])([2H])c1nnn(C)c1-c1cnc2c3c(F)cc(S(C)(=O)=O)cc3n(C(c3ncccc3F)C3CCC(F)(F)CC3)c2c1 (centres unmarked) [Example 212, 2-[(4,4-Difluorocyclohexyl)({9-fluoro-7-methanesulfonyl-3-[4-(^2H3)methyl-1-methyl-1H-1,2,3-triazol-5-yl]-5H-pyrido[3,2-b]indol-5-yl})methyl]-3-fluoropyridine] | < 5
4 | Cc1nnn(C)c1-c1cnc2c3c(NS(C)(=O)=O)ccc(S(C)(=O)=O)c3n([C@H](c3ccccc3)C3CCOCC3)c2c1 [Example 216, N-[3-(dimethyl-1H-1,2,3-triazol-5-yl)-6-methanesulfonyl-5-[(S)-oxan-4-yl(phenyl)methyl]-5H-pyrido[3,2-b]indol-9-yl]methanesulfonamide] | < 5
5 | Cc1nnn(C)c1-c1cnc2c3c(NS(=O)(=O)C4CC4)ccc(S(C)(=O)=O)c3n([C@H](c3ccccc3)C3CCOCC3)c2c1 [Example 218] | < 5
6 | [2H]C([2H])([2H])c1nnn(C)c1-c1cnc2c3c(F)ccc(S(C)(=O)=O)c3n([C@H](c3ccccc3)C3CCOCC3)c2c1 [Example 221, 5-{9-Fluoro-6-methanesulfonyl-5-[(S)-oxan-4-yl(phenyl)methyl]-5H-pyrido[3,2-b]indol-3-yl}-4-(^2H3)methyl-1-methyl-1H-1,2,3-triazole] | < 5
7 | [2H]C([2H])([2H])c1nnn(C)c1-c1cnc2c3c(NS(=O)(=O)C4CC4)ccc(S(C)(=O)=O)c3n([C@H](c3ccccc3)C3CCOCC3)c2c1 [Example 222, N-{6-Methanesulfonyl-3-[4-(^2H3)methyl-1-methyl-1H-1,2,3-triazol-5-yl]-5-[(S)-oxan-4-yl(phenyl)methyl]-5H-pyrido[3,2-b]indol-9-yl}cyclopropanesulfonamide] | < 5
8 | [2H]C([2H])([2H])c1nnn(C)c1-c1cnc2c3c(NCCCC(=O)O)ccc(S(C)(=O)=O)c3n([C@H](c3ccccc3)C3CCOCC3)c2c1 [Example 225, 4-({6-Methanesulfonyl-3-[4-(^2H3)methyl-1-methyl-1H-1,2,3-triazol-5-yl]-5-[(S)-oxan-4-yl(phenyl)methyl]-5H-pyrido[3,2-b]indol-9-yl}amino)butanoic acid] | < 25
9 | [2H]C([2H])([2H])c1nnn(C)c1-c1cnc2c3c(NCC(C)(C)N)ccc(S(C)(=O)=O)c3n([C@H](c3ccccc3)C3CCOCC3)c2c1 [Example 226, N-(2-Amino-2-methylpropyl)-6-methanesulfonyl-3-[4-(^2H3)methyl-1-methyl-1H-1,2,3-triazol-5-yl]-5-[(S)-oxan-4-yl(phenyl)methyl]-5H-pyrido[3,2-b]indol-9-amine] | < 5
10 | [2H]C([2H])([2H])c1nnn(C)c1-c1cnc2c3c(N)ccc(S(C)(=O)=O)c3n([C@H](c3ccccc3)C3CCOCC3)c2c1 [Example 227, 6-Methanesulfonyl-3-[4-(^2H3)methyl-1-methyl-1H-1,2,3-triazol-5-yl]-5-[(S)-oxan-4-yl(phenyl)methyl]-5H-pyrido[3,2-b]indol-9-amine] | < 5
11 | [2H]C([2H])([2H])c1nnn(C)c1-c1cnc2c3c(NS(=O)(=O)CC(F)(F)F)ccc(S(C)(=O)=O)c3n([C@H](c3ccccc3)C3CCOCC3)c2c1 [Example 228, 2,2,2-Trifluoro-N-{6-methanesulfonyl-3-[4-(^2H3)methyl-1-methyl-1H-1,2,3-triazol-5-yl]-5-[(S)-oxan-4-yl(phenyl)methyl]-5H-pyrido[3,2-b]indol-9-yl}ethane-1-sulfonamide] | < 5
12 | [2H]C([2H])([2H])c1nnn(C)c1-c1cnc2c3c(OCC(F)F)ccc(S(C)(=O)=O)c3n([C@H](c3ccccc3)C3CCOCC3)c2c1 [Example 229, 5-[9-(2,2-Difluoroethoxy)-6-methanesulfonyl-5-[(S)-oxan-4-yl(phenyl)methyl]-5H-pyrido[3,2-b]indol-3-yl]-4-(^2H3)methyl-1-methyl-1H-1,2,3-triazole] | < 5
13 | [2H]C([2H])([2H])c1nnn(C)c1-c1cnc2c3c(OCC(C)(F)F)ccc(S(C)(=O)=O)c3n([C@H](c3ccccc3)C3CCOCC3)c2c1 [Example 230, 5-[9-(2,2-Difluoropropoxy)-6-methanesulfonyl-5-[(S)-oxan-4-yl(phenyl)methyl]-5H-pyrido[3,2-b]indol-3-yl]-4-(^2H3)methyl-1-methyl-1H-1,2,3-triazole] | < 5
14 | [2H]C([2H])([2H])c1nnn(C)c1-c1cnc2c3c(F)ccc(S(C)(=O)=O)c3n([C@H](c3ccccc3F)C3CCOCC3)c2c1 [Example 231, 5-{9-Fluoro-5-[(S)-(2-fluorophenyl)(oxan-4-yl)methyl]-6-methanesulfonyl-5H-pyrido[3,2-b]indol-3-yl}-4-(^2H3)methyl-1-methyl-1H-1,2,3-triazole] | < 5
15 | [2H]C([2H])([2H])c1nnn(C)c1-c1cnc2c3c(F)ccc(S(C)(=O)=O)c3n([C@H](c3ccc(F)cc3)C3CCOCC3)c2c1 [Example 233, 5-{9-Fluoro-5-[(S)-(4-fluorophenyl)(oxan-4-yl)methyl]-6-methanesulfonyl-5H-pyrido[3,2-b]indol-3-yl}-4-(^2H3)methyl-1-methyl-1H-1,2,3-triazole] | < 5
16 | [2H]C([2H])([2H])c1nnn(C)c1-c1cnc2c3c(F)ccc(S(C)(=O)=O)c3n(C(c3ncccc3F)C3CCOCC3)c2c1 (centres unmarked) [Example 235, 3-Fluoro-2-({9-fluoro-6-methanesulfonyl-3-[4-(^2H3)methyl-1-methyl-1H-1,2,3-triazol-5-yl]-5H-pyrido[3,2-b]indol-5-yl}(oxan-4-yl)methyl)pyridine] | < 5
17 | [2H]C([2H])([2H])c1nnn(C)c1-c1cnc2c3c(F)ccc(S(C)(=O)=O)c3n(C(c3ncccc3F)C3CCOCC3)c2c1 (centres unmarked) [Example 236, 3-Fluoro-2-({9-fluoro-6-methanesulfonyl-3-[4-(^2H3)methyl-1-methyl-1H-1,2,3-triazol-5-yl]-5H-pyrido[3,2-b]indol-5-yl}(oxan-4-yl)methyl)pyridine] | < 1500
18 | [2H]C([2H])([2H])c1nnn(C)c1-c1cnc2c3ccc(S(C)(=O)=O)cc3n(C(c3ncccc3F)C3CCC(F)(F)CC3)c2c1 (centres unmarked) [Example 239, 2-[(4,4-Difluorocyclohexyl)({7-methanesulfonyl-3-[4-(^2H3)methyl-1-methyl-1H-1,2,3-triazol-5-yl]-5H-pyrido[3,2-b]indol-5-yl})methyl]-3-fluoropyridine] | < 5
19 | [2H]C([2H])([2H])c1nnn(C)c1-c1cnc2c3ccc(S(C)(=O)=O)cc3n(C(c3ncccc3F)C3CCC(F)(F)CC3)c2c1 (centres unmarked) [Example 240, 2-[(4,4-Difluorocyclohexyl)({7-methanesulfonyl-3-[4-(^2H3)methyl-1-methyl-1H-1,2,3-triazol-5-yl]-5H-pyrido[3,2-b]indol-5-yl})methyl]-3-fluoropyridine] | < 5
20 | Cc1nnn(C)c1-c1cnc2c3ccc(C4(O)COC4)cc3n([C@H](c3ccc(F)cc3)C3CCOCC3)c2c1 [Example 243, 3-[3-(Dimethyl-1H-1,2,3-triazol-5-yl)-5-[(S)-(4-fluorophenyl)(oxan-4-yl)methyl]-5H-pyrido[3,2-b]indol-7-yl]oxetan-3-ol] | < 5
21 | Cc1noc(C)c1-c1cnc2c3ccc(C4(O)COC4)cc3n([C@H](c3ccccc3)C3CCOCC3)c2c1 [Example 244, 3-[3-(Dimethyl-1,2-oxazol-4-yl)-5-[(S)-oxan-4-yl(phenyl)methyl]-5H-pyrido[3,2-b]indol-7-yl]oxetan-3-ol] | < 5
22 | [2H]C([2H])([2H])c1nnn(C)c1-c1cnc2c3c(OCC(F)F)ccc(S(C)(=O)=O)c3n(C(c3ncccc3F)C3CCOCC3)c2c1 (centres unmarked) [Example 245, 2-{[9-(2,2-Difluoroethoxy)-6-methanesulfonyl-3-[4-(^2H3)methyl-1-methyl-1H-1,2,3-triazol-5-yl]-5H-pyrido[3,2-b]indol-5-yl](oxan-4-yl)methyl}-3-fluoropyridine] | < 5
23 | [2H]C([2H])([2H])c1nnn(C)c1-c1cnc2c3c(OCC(F)F)ccc(S(C)(=O)=O)c3n(C(c3ncccc3F)C3CCOCC3)c2c1 (centres unmarked) [Example 246, 2-{[9-(2,2-Difluoroethoxy)-6-methanesulfonyl-3-[4-(^2H3)methyl-1-methyl-1H-1,2,3-triazol-5-yl]-5H-pyrido[3,2-b]indol-5-yl](oxan-4-yl)methyl}-3-fluoropyridine] | < 1500
24 | [2H]C([2H])([2H])c1nnn(C)c1-c1cnc2c3c(OCC(C)(F)F)ccc(S(C)(=O)=O)c3n(C(c3ncccc3F)C3CCOCC3)c2c1 (centres unmarked) [Example 247, 2-{[9-(2,2-Difluoropropoxy)-6-methanesulfonyl-3-[4-(^2H3)methyl-1-methyl-1H-1,2,3-triazol-5-yl]-5H-pyrido[3,2-b]indol-5-yl](oxan-4-yl)methyl}-3-fluoropyridine] | < 5
25 | [2H]C([2H])([2H])c1nnn(C)c1-c1cnc2c3c(OCC(C)(F)F)ccc(S(C)(=O)=O)c3n(C(c3ncccc3F)C3CCOCC3)c2c1 (centres unmarked) [Example 248, 2-{[9-(2,2-Difluoropropoxy)-6-methanesulfonyl-3-[4-(^2H3)methyl-1-methyl-1H-1,2,3-triazol-5-yl]-5H-pyrido[3,2-b]indol-5-yl](oxan-4-yl)methyl}-3-fluoropyridine] | < 1500
26 | Cc1noc(C)c1-c1cnc2c3ccc(CC(C)(C)O)cc3n([C@H](c3ccccc3)C3CCOCC3)c2c1 [Example 252, 1-[3-(Dimethyl-1,2-oxazol-4-yl)-5-[(S)-oxan-4-yl(phenyl)methyl]-5H-pyrido[3,2-b]indol-7-yl]-2-methylpropan-2-ol] | < 5
